BindingDB's records for doi:10.7270/Q2TX3CTT (Broad Institute, 2010)

Molecular target: Glycogen synthase kinase-3 beta (Homo sapiens, UniProt P49841)
Assay: concentration-response blocking of human GSK3B – biochemical, luminescence, cell-free homogeneous, retest, dose response (AID 434954)

Chain of Glycogen synthase kinase-3 beta (P49841 whole entry): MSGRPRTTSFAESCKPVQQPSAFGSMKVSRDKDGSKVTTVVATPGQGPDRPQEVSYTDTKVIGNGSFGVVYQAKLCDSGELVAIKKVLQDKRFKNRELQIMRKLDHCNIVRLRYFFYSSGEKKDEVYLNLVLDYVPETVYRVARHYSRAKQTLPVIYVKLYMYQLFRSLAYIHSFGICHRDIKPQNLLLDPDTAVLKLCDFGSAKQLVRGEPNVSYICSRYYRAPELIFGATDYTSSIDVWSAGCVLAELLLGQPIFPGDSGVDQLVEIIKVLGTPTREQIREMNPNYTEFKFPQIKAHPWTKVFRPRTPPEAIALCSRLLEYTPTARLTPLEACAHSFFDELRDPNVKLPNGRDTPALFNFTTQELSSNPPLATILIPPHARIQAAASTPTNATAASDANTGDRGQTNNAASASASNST

| SMILES | EC50 |
| --- | --- |
| Nc1nonc1-n1nnc(C(=O)NN=Cc2cccc(O)c2)c1CN1CCCC1 [1-(4-azanyl-1,2,5-oxadiazol-3-yl)-N-[(3-hydroxyphenyl)methylideneamino]-5-(pyrrolidin-1-ylmethyl)-1,2,3-triazole-4-carboxamide] | 12.8 µM |
| O=c1cc(-c2ccccc2Cl)oc2c(NS(=O)(=O)c3cccs3)ccc(O)c12 [MLS000518499] | > 300 µM |
| COc1nc(N(C)C)nc(N(C#N)CCOC(C)=O)n1 [2-[cyano-[4-(dimethylamino)-6-methoxy-1,3,5-triazin-2-yl]amino]ethyl ethanoate] | > 300 µM |
| Cc1ccc(SCC(=O)N2CC(C)OC(C)C2)cc1 (stereo not drawn) | > 300 µM |
| O=C(CN(Cc1ccc(F)cc1)C(=O)CCC(=O)Nc1ccccn1)NCc1ccc(F)cc1 [N-(4-Fluoro-benzyl)-N-[(4-fluoro-benzylcarbamoyl)-methyl]-N'-pyridin-2-yl-succinamide] | 37.7 µM |
| COc1cccc2cc(C(=O)NCc3ccc(C)cc3)c(=N)oc12 | > 300 µM |
| COc1ccc(COC(=O)C2C(C)=NC(=O)NC2c2ccc(O)c(OC)c2)cc1 (stereo not drawn) [4-(4-hydroxy-3-methoxyphenyl)-6-methyl-2-oxo-3,4-dihydro-1H-pyrimidine-5-carboxylic acid (4-methoxyphenyl)methyl ester] | > 300 µM |
| c1ccc(CCCCNCC2COc3ccccc3O2)cc1 (stereo not drawn) [N-(2,3-dihydro-1,4-benzodioxin-3-ylmethyl)-4-phenylbutan-1-amine] | > 300 µM |
| c1cc(CSc2nnc(-c3ccc4c(c3)OCO4)o2)ccn1 [SMR000006350] | 1.71 µM |
| COc1ccc2cc(C(=O)C3CCCN(C(=O)c4sc(C)nc4C)C3)ccc2c1 (stereo not drawn) [SMR000653741] | > 300 µM |
| Cc1occc1C(=O)N1CCN(C(=O)C2CCCO2)CC1 (stereo not drawn) [1-(2-methyl-3-furoyl)-4-(tetrahydro-2-furanylcarbonyl)piperazine] | > 300 µM |
| CCN1CCN(C(=O)Cn2nc(C)n3c(cc4c(OC)cccc43)c2=O)CC1 [MLS001076371] | > 300 µM |
| CC1(C)CC(=O)C2C(=Nc3ncnn3C2c2cccs2)C1 (stereo not drawn) [SMR000291528] | 57.1 µM |
| Cc1ccc(-c2nn(-c3ccccc3)cc2C=C2C(=O)CC(C)(C)CC2=O)cc1 [5,5-dimethyl-2-[[3-(4-methylphenyl)-1-phenylpyrazol-4-yl]methylidene]cyclohexane-1,3-dione] | > 300 µM |
| CCOc1ccccc1C=NNC(=O)c1nnn(-c2nonc2N)c1CN1CCC(C)CC1 [SMR000620330] | > 300 µM |
| Cn1ncnc2c(=O)n(C)c(=O)nc1-2 | 62.7 µM |
| COc1cccc(N=Nc2c(N)[nH][nH]c2=O)c1 [SMR000231776] | 19.9 µM |
| CC1=Nc2ncnn2C(c2c[nH]c3ccccc23)C1C(=O)OC(C)C (stereo not drawn) | 1.81 µM |
| CSc1nnnn1-c1c(C)cccc1C [MLS000861118] | > 300 µM |
| COCCCn1c(-c2ccc(OC)cc2)nc2nc3ccccc3nc21 | > 300 µM |
| O=c1c2c3c(sc2nc2n1N=C(c1cccs1)CS2)CCCC3 [SMR000161302] | > 300 µM |
| COc1cccc(-c2nnc3sc(C4CCCCC4)nn23)c1 [6-cyclohexyl-3-(3-methoxyphenyl)-[1,2,4]triazolo[3,4-b][1,3,4]thiadiazole] | 16.3 µM |
| CCCn1nc(NC(=O)C2CCCO2)c2cc3ccc(C)cc3nc21 (stereo not drawn) [N-(7-methyl-1-propyl-pyrazolo[3,4-b]quinolin-3-yl)oxolane-2-carboxamide] | > 300 µM |

| SMILES | EC50 |
| --- | --- |
| COc1cc([CH+][N-]NC(=O)COc2ccc([N+](=O)[O-])cc2)ccc1OCC(=O)N1CCOCC1 [N-[[3-methoxy-4-[2-(4-morpholinyl)-2-oxoethoxy]phenyl]methylideneamino]-2-(4-nitrophenoxy)acetamide] | > 300 µM |
| C=CCC1(CC=C)CCCN1C(=O)C1CCC(=O)N(CCc2ccc(OC)cc2)C1 (stereo not drawn) [MLS001072450] | > 300 µM |
| CON=C(CNC(=O)c1ccc(Cl)cc1Cl)c1ccc(Cl)cc1 [SMR000179199] | > 300 µM |
| CCCCc1c(O)nc(SCC(=O)c2ccccc2)n(-c2ccccc2OC)c1=O [5-Butyl-6-hydroxy-3-(2-methoxy-phenyl)-2-(2-oxo-2-phenyl-ethylsulfanyl)-3H-pyrimidin-4-one] | > 300 µM |
| CCc1cc2c(s1)NC(=O)CN=C2c1cccs1 | 32.7 µM |
| Cn1nnnc1Sc1c(Cl)cccc1[N+](=O)[O-] [5-({2-chloro-6-nitrophenyl}sulfanyl)-1-methyl-1H-tetraazole] | > 300 µM |
| COc1ccc(C=C2SC(NCc3ccccc3)=NC2=O)cc1 [(5Z)-5-[(4-methoxyphenyl)methylidene]-2-[(phenylmethyl)amino]-1,3-thiazol-4-one] | 7.01 µM |
| Cc1ccc(S(=O)(=O)NCC2COc3ccccc3O2)cc1 (stereo not drawn) [N-(2,3-Dihydro-benzo[1,4]dioxin-2-ylmethyl)-4-methyl-benzenesulfonamide] | > 300 µM |
| COCCCNC(=O)c1cccn2c(=O)c3cc4ccccc4cc3nc12 [N-(3-methoxypropyl)-12-oxidanylidene-12H-benzo[g]pyrido[2,1-b]quinazoline-4-carboxamide] | 0.531 µM |
| COc1cc([CH+][N-]NC(=O)c2ccncc2)ccc1Oc1ccc([N+](=O)[O-])cn1 [N-[[3-methoxy-4-[(5-nitro-2-pyridinyl)oxy]phenyl]methylideneamino]-4-pyridinecarboxamide] | > 300 µM |
| CCOC(=O)c1nnn(-c2nonc2N)c1CSc1ccc(C)cc1 [SMR000020597] | 160 µM |
| CCOc1ccccc1N1CCN(S(=O)(=O)c2cc(C)ccc2OC)CC1 [MLS000703554] | > 300 µM |
| Cc1cccc(Nc2nc(NCc3ccco3)nc(N)c2[N+](=O)[O-])c1 [2-N-(furan-2-ylmethyl)-4-N-(3-methylphenyl)-5-nitropyrimidine-2,4,6-triamine] | 64.4 µM |
| CCOc1ccc(CN=Nc2ccccn2)cc1OC [MLS001005584] | > 300 µM |
| NNC(=O)CNC(=O)c1ccc(F)cc1 | > 300 µM |
| COc1ccc(-n2nc3c(N)n[nH]c3cc2=O)cc1 [SMR000337768] | 14.1 µM |
| Nc1nonc1-n1nnc(C(=O)NN=Cc2ccoc2)c1CSc1ccc(Cl)cc1 [1-(4-amino-1,2,5-oxadiazol-3-yl)-5-[(4-chlorophenyl)sulfanylmethyl]-N-(furan-3-ylmethylideneamino)triazole-4-carboxamide] | > 300 µM |
| CCN(CC)Cc1c(O)ccc2c1O/C(=C\C=C\c1ccccc1)C2=O [MLS000779120] | > 300 µM |
| COc1ccc(C2CC(=O)c3c(O)cc(O)cc3O2)c(CC=C(C)C)c1OC (stereo not drawn) [antiarone F] | > 300 µM |
| O=[N+]([O-])c1cc(Cl)ccc1N1CCCC1 [SMR000284754] | > 300 µM |
| O=C1N=C(Nc2ccccc2)SC1=Cc1cccnc1 [MLS000768418] | > 300 µM |
| O=C1CCCC2=Nc3ccccc3NC(c3cccs3)C12 (stereo not drawn) [6-thiophen-2-yl-5,6,8,9,10,11-hexahydrobenzo[b][1,4]benzodiazepin-7-one] | > 300 µM |
| O=C1N=C(Nc2ccccc2Cl)SC1=Cc1ccc(C(=O)O)cc1 [MLS001203362] | > 300 µM |

| SMILES | EC50 |
| --- | --- |
| CC(=O)c1cccc(Nc2nc(-c3ccccc3)nc3ccccc23)c1 [SMR000516691] | > 300 µM |
| CCCn1c(SCC(=O)Nc2ccc(Cl)cn2)nnc1C1CC1 | 24 µM |
| COC(=O)c1ccc(-n2c(O)cc(N3CCN(C(=O)c4ccco4)CC3)c2O)cc1 [MLS000027707] | > 300 µM |
| Cc1ccc(-c2nn(-c3ccccc3)cc2C=Nn2c(-c3ccncc3)n[nH]c2=S)cc1 [4-[[3-(4-methylphenyl)-1-phenyl-4-pyrazolyl]methylideneamino]-3-pyridin-4-yl-1H-1,2,4-triazole-5-thione] | > 300 µM |
| O=C(O)/C=C/c1cccc2c1OCCO2 [(E)-3-(2,3-dihydro-1,4-benzodioxin-5-yl)-2-propenoic acid] | > 300 µM |
| CCCc1cc(O)c2c(C)cc(=O)oc2c1 [5-hydroxy-4-methyl-7-propyl-1-benzopyran-2-one] | > 300 µM |
| Cc1ccc2nc3c(cc2c1)c(NC(=O)c1ccco1)nn3CC(C)C [Furan-2-carboxylic acid (1-isobutyl-6-methyl-1H-pyrazolo[3,4-b]quinolin-3-yl)-amide] | > 300 µM |
| CCCn1nc(NC(=O)c2cccs2)c2cc3ccc(C)cc3nc21 [N-(7-methyl-1-propylpyrazolo[3,4-b]quinolin-3-yl)thiophene-2-carboxamide] | > 300 µM |
| CC(C(=O)Nc1cccnc1)n1cc([N+](=O)[O-])cn1 (stereo not drawn) [MLS000729046] | > 300 µM |
| CN(C)/N=N/c1ccc(S(N)(=O)=O)cc1 [SMR000272943] | > 300 µM |
| Cc1ccc2c(c1)Oc1ccc([N+](=O)[O-])cc1C(=O)N2 [7-methyl-2-nitrodibenzo[b,f][1,4]oxazepin-11(10H)-one] | > 300 µM |
| Cc1cccc(Nc2nc(N)c([N+](=O)[O-])c(NCCO)n2)c1 [2-(6-Amino-5-nitro-2-m-tolylamino-pyrimidin-4-ylamino)-ethanol] | 5.91 µM |
| CC(C(=O)NCc1ccco1)n1cc([N+](=O)[O-])cn1 (stereo not drawn) [N-(2-furylmethyl)-2-(4-nitro-1H-pyrazol-1-yl)propanamide] | > 300 µM |
| COc1ccc(C2C(C(C)=O)C(=O)C(=O)N2c2nccs2)c(OC)c1 (stereo not drawn) [3-acetyl-2-(2,4-dimethoxyphenyl)-4-hydroxy-1-(1,3-thiazol-2-yl)-2H-pyrrol-5-one] | > 300 µM |
| COc1ccc(/C=C2\Sc3ccc(C(=O)NCCCN4CCCC4)cc3N(C)C2=O)cc1OC [(2Z)-2-[(3,4-dimethoxyphenyl)methylidene]-4-methyl-3-oxo-N-(3-pyrrolidin-1-ylpropyl)-1,4-benzothiazine-6-carboxamide] | > 300 µM |
| COc1ccc(OC)c(Nc2c3ccccc3nc3ccccc23)c1 [N-(2,5-dimethoxyphenyl)-9-acridinamine] | > 300 µM |
| O=C(O)COc1ccc2occ(C(=O)c3ccccc3)c2c1 | 4.3 µM |
| Oc1ccc2oc3c(c2c1)CCCC3 | > 300 µM |
| c1ccc(Nc2ncnc3[nH]ncc23)cc1 | 45.5 µM |
| CCOC(=O)c1c(-c2ccccc2)oc2ccc(OCC(=O)NNC(=O)CCCC(=O)O)cc12 | > 300 µM |
| CC(=O)Nc1c(N)c2ccccc2oc1=O [N-(4-amino-2-oxo-1-benzopyran-3-yl)acetamide] | > 300 µM |
| COc1ccc(-n2c(=O)c3c4c(sc3n3c(S)nnc23)CCCC4)cc1 [1-mercapto-4-(4-methoxyphenyl)-6,7,8,9-tetrahydro[1]benzothieno[3,2-e][1,2,4]triazolo[4,3-a]pyrimidin-5(4H)-one] | > 300 µM |
